Measured values taken from patent US7816519B2, “Derivatives of 1,2-dihydro-7-hydroxyquinolines containing fused rings” (Life Technologies Corporation, priority 2000, dated 2010).
Each block holds one compound with its values, some of them ahead of it.

Experiments:
[1] = Fluorescence quantum yield determination against sulforhodamine 101 reference; type: physicochemical; settings: excited at 560 nm, triplicate
Method: The fluorescence quantum yield of Compound 41 is determined using sulforhodamine 101 (in ethyl alcohol) as the reference standard (φF=0.90). The concentrations of sulforhodamine 101 (the reference) and Compound 41 are adjusted to obtain an absorbance of 0.25 (in 1 cm cell) at 560 nm. The sample and reference are each excited at 560 nm and their fluorescence spectra obtained. The fluorescence quantum yield of the sample (φF^X) in the indicated solvent was calculated from the following formula, considering that the peak area (AR) of the emission spectrum of the reference and that of the tested dye (AX) can be readily determined: φF^X=AxφF^RAR where φF^R and φF^X are the fluorescence quantum yields of the reference and the testing dye. The measurements are done in triplicate and the estimated errors are no more than 1%. The quantum yields of Compound 41 are determined to be 0.72 (in methyl alcohol) and 0.68 (in water) respectively.

[2] = tested on: Mouse monocyte-macrophage, Abelson Leukemia Virus Transformed (RAW264.7) cells; test: Discrimination of live and dead cells by flow cytometry; type: cell-based; settings: heat-killed fraction (50° C., 20 minutes), 30 minutes on ice
Method: Selected dyes of the invention are highly polar, and therefore relatively impermeable to the membranes of live cells. These dyes can therefore be used to discriminate cells that have intact versus compromised cell membranes in a single-color assay as follows: Mouse monocyte-macrophage, Abelson Leukemia Virus Transformed (RAW264.7) cells are trypsinized and washed with phosphate buffered saline (PBS), pH 7.2. Approximately 8-10 million cells suspended in 180 μL of PBS, pH 7.2 are placed in a glass test tube and heated in a water bath at 50° C. for 20 minutes to kill a fraction of the cells. […] The mixture is incubated on ice for 30 minutes and washed twice with PBS, followed by addition of 200 μL of PBS, pH 7.2. An identical aliquot of cells is treated with 2 μL of a 150 μM solution of propidium iodide in water (as a control for dead cells).

[3] = tested on: Neurons from zebrafish embryos; test: Neuronal tracing using a hydrazide-labeled fluorophore (microinjection); type: cell-based
From the text: Neurons from zebrafish embryos are microinjected with Compound 44, using standard methods as described by Blankenfeld et al. (J. NEUROSCI. METH. 36, 309 (1991)). […] The staining is fixable in the cells using formaldehyde and standard fixing methods.

[4] = Determination of the Ca2+ binding affinity (fluorescence titration, method of Tsien et al.)
Method: The fluorescence response and dissociation constant of Compound 58 is determined using the method described by Tsien et al. METH. ENZYM. 172, 230 (1989). Compound 58 (1 mg) is dissolved in deionized water and 5 µL of this solution is diluted into 3 mL of each of two buffers, which are cross diluted to arrive at a series of Ca^2+ concentrations between zero and 35 µM. Emission spectra of the dye solutions are scanned between dilutions to generate a family of curves. Each of these curves has maximal fluorescence emission at approximately 640 nm with an increase in fluorescence emission intensity with increasing Ca^2+ concentration. This intensity change is plotted against the concentration of free Ca^2+ to give a value for the dissociation constant of the indicator. The calculated dissociation constant at 20° C. is 57.5 μM.

[5] = in ethyl alcohol; cited from earlier work
[6] = Fluorescence of selected protein conjugates; type: physicochemical; settings: protein conjugates prepared with Compound 42 as in Example 47
Method: A series of dye conjugates of goat anti-mouse IgG, streptavidin and other proteins, including R-phycoerythrin (R-PE) are prepared by standard means (Haugland et al., METH. MOL. BIOL. 45, 205 (1995); Haugland, METH. MOL. BIOL. 45, 223 (1995); Haugland, METH. MOL. BIOL. 45, 235 (1995)) using Compound 42 and a succinimidyl ester derivative of CY-5 dye.
A solution of the desired protein is prepared at 10 mg/mL in 0.1 M sodium bicarbonate. The labeling reagents are dissolved in DMF at 10 mg/mL. Predetermined amounts of the labeling reagents are added to the protein solutions with stirring. A molar ratio of 10 equivalents of dye to 1 equivalent of protein is typical, though the optimal amount varies with the particular labeling reagent, the protein being labeled and the protein's concentration, and is determined empirically. The reaction mixture is incubated at room temperature for one hour, or on ice for several hours. The dye-protein conjugate is typically separated from free unreacted reagent by size-exclusion chromatography on BIO-RAD P-30 resin equilibrated with PBS. The initial, protein-containing colored band is collected and the degree of substitution is determined from the absorbance at the absorbance maximum of each fluorophore, using the extinction coefficient of the free fluorophore.

fluorescence quantum yield ([1]; in methyl alcohol): 0.72
fluorescence quantum yield ([1]; in water): 0.68
Compound: CN1c2cc3c(cc2-c2sc(S(=O)(=O)O)cc2C1(C)C)C(c1c(F)c(SCC(=O)O)cc(F)c1S(=O)(=O)[O-])=c1cc2c(cc1O3)=[N+](C)C(C)(C)c1cc(S(=O)(=O)O)sc1-2 [Compound 41]

Compound: CN1c2cc3c(cc2-c2sc(S(=O)(=O)O)cc2C1(C)C)C(c1c(F)c(SCC(=O)ON2C(=O)CCC2=O)cc(F)c1S(=O)(=O)[O-])=c1cc2c(cc1O3)=[N+](C)C(C)(C)c1cc(S(=O)(=O)O)sc1-2 [Compound 42]
dead cell populations stained, compared with propidium iodide [2]: very similar

Compound: CN1c2cc3c(cc2-c2sc(S(=O)(=O)O)cc2C1(C)C)C(c1c(F)c(SCC(=O)NN)cc(F)c1S(=O)(=O)[O-])=c1cc2c(cc1O3)=[N+](C)C(C)(C)c1cc(S(=O)(=O)O)sc1-2 [Compound 44]
filling and fluorescence of microinjected neurons [3]: neurons rapidly fill with the dye throughout their volume and their red fluorescence is readily observable

maximal fluorescence emission ([4]; Ca2+ buffer series, intensity increases with increasing Ca2+): approximately 640 nm
Kd ([4]; at 20° C., free Ca2+ between zero and 35 µM, read-out: dissociation constant (Ca2+)): 57.5 µM
Compound: Cc1ccc(N(CC(=O)O)CC(=O)O)c(OCCOc2cc(C3=c4cc5c(cc4Oc4cc6c(cc43)-c3sc4ccccc4c3C(C)(C)N6C)=[N+](C)C(C)(C)c3c-5sc4ccccc34)ccc2N(CC(=O)[O-])CC(=O)O)c1 [Compound 58]

Compound: O=S(=O)([O-])c1cc(S(=O)(=O)O)ccc1C1=c2cc3c4c(c2Oc2c1cc1c5c2CCCN5CCC1)CCC[N+]=4CCC3 [sulforhodamine 101]
fluorescence quantum yield of reference standard (φF) [5]: 0.90

Compound: Wheat Germ Agglutinin
Quantum Yield [6]: 0.56
